Data as given in patent US9676714B2, “Sulfonylindole derivatives and method for preparing the same” (Daewoong Pharmaceutical Co., Ltd., priority 2013, dated 2017).
Structures can show the parent of a compound that is named as a salt.

Biological target: T1, proton pump (H+/K+-ATPase) (Sus scrofa, UniProt P19156)
T1 construct: Gastric vesicles were prepared from hog stomach via centrifugal separation; from tissue; host or cells: hog stomach (gastric vesicles, method of Rabon et al. 1988)
Experiment: Measurement of inhibitory effects on proton pump (H+/K+-ATPase) activities
Assay type: biochemical
Conditions: hog gastric vesicles, K+-specific H+/K+-ATPase activity, Tris-HCl buffer pH 7.4, 37° C. for 40 minutes, malachite green Pi readout
Outline: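 Hog gastric vesicles in 60 mmol/l Tris-HCl pH 7.4 with 0.5% DMSO were treated with compounds at room temperature; reaction was started with 10 μl of 10 mmol/l ATP stock. Released Pi was read at 570 nm, K+-specific activity taken as the ±K+ difference. IC50 from 4-parameter logistic fit.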

T1 sequence (P19156 whole entry): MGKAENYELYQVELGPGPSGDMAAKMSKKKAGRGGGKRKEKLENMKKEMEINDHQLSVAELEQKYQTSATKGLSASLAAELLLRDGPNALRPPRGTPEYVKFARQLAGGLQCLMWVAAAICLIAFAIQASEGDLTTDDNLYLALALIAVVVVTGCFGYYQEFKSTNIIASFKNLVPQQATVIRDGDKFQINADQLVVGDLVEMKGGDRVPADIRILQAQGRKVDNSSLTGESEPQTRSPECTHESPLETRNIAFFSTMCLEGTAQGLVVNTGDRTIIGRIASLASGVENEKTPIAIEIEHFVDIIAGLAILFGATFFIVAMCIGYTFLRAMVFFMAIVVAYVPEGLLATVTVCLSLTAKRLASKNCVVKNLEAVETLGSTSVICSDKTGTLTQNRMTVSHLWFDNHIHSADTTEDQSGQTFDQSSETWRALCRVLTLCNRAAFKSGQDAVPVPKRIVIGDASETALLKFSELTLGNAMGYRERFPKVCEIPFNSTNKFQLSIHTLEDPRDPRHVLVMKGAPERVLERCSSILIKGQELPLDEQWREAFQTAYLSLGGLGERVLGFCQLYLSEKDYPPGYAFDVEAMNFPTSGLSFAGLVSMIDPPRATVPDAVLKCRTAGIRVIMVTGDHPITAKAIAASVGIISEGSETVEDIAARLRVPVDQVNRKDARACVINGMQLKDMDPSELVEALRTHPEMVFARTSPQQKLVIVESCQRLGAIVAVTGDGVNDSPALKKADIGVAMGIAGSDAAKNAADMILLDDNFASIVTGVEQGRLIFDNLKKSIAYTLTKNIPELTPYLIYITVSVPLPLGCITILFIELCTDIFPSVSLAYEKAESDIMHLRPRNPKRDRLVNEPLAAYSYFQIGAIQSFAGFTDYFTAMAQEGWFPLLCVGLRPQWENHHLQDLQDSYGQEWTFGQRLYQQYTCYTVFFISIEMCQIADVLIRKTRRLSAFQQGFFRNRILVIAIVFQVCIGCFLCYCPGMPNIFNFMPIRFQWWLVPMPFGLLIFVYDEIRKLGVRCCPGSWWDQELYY
T1 sequence (P18434 whole entry partner): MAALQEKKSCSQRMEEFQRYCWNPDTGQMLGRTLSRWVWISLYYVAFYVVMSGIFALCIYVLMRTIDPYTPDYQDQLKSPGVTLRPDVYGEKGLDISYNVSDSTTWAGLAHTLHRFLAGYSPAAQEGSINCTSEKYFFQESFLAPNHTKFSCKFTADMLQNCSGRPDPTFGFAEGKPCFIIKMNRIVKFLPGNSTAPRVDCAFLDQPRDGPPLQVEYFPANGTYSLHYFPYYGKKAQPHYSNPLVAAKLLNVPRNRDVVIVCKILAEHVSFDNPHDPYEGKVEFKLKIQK

Row | SMILES | IC50
1 | CNCc1cn(S(=O)(=O)c2cccnc2)c2cc(Nc3cccc(Br)c3)ccc12 [Example 5, N-(3-bromophenyl)-3-((methylamino)methyl)-1-(pyridin-3-ylsulfonyl)-1H-indol-6-amine hydrochloride] | 800 nM
2 | CN(C)C(=O)c1cn(S(=O)(=O)c2cccnc2)c2cc(Nc3ccc(Cl)nc3Cl)ccc12 [Example 331, 6-((2,6-dichloropyridin-3-yl)amino)-N,N-dimethyl-1-(pyridin-3-ylsulfonyl)-1H-indol-3-carboxamide] | 70000 nM
3 | CNCc1cn(S(=O)(=O)c2cccnc2)c2cc(Nc3ncccc3F)ccc12 [Example 99, N-(3-fluoropyridin-2-yl)-3-((methylamino)methyl)-1-(pyridin-3-ylsulfonyl)-1H-indol-6-amine hydrochloride] | 1380 nM
4 | CNCc1cn(S(=O)(=O)c2cccc(C(F)(F)F)c2)c2cc(Nc3ccc(OC(F)(F)F)cc3OC)ccc12 [Example 190, N-(2-methoxy-4-(trifluoromethoxy)phenyl)-3-((methylamino)methyl)-1-((3-(trifluoromethyl)phenyl)sulfonyl)-1H-indol-6-amine hydrochloride] | 440 nM
5 | Cc1ccc(Nc2ccc3c(C(=O)N(C)C)cn(S(=O)(=O)c4cccnc4)c3c2)c(Cl)n1 [Example 330, 6-((2-chloro-6-methylpyridin-3-yl)amino)-N,N-dimethyl-1-(pyridin-3-ylsulfonyl)-1H-indol-3-carboxamide] | 22000 nM
6 | CNCc1cn(S(=O)(=O)c2cccnc2)c2cc(-c3ccc(N)cc3)ccc12 [Example 246, 4-(3-((methylamino)methyl)-1-(pyridin-3-ylsulfonyl)-1H-indol-6-yl)aniline] | 530 nM
7 | CNCc1cn(S(=O)(=O)c2cccnc2)c2cc(Nc3ccncc3C(F)(F)F)ccc12 [Example 129, 3-((methylamino)methyl)-1-(pyridin-3-ylsulfonyl)-N-(3-(trifluoromethyl)pyridin-4-yl)-1H-indol-6-amine hydrochloride] | 10200 nM
8 | CNCc1cn(S(=O)(=O)c2cccnc2)c2cc(-c3cccc(NC(C)=O)c3)ccc12 [Example 245, N-(3-(3-((methylamino)methyl)-1-(pyridin-3-ylsulfonyl)-1H-indol-6-yl)phenyl)acetamide] | 12900 nM
9 | CNCc1cn(S(=O)(=O)c2cccnc2)c2cc(Nc3cccnc3C)ccc12 [Example 105, 3-((methylamino)methyl)-N-(2-methylpyridin-3-yl)-1-(pyridin-3-ylsulfonyl)-1H-indol-6-amine hydrochloride] | 880 nM
10 | CNCc1cn(S(=O)(=O)c2ccccc2F)c2cc(Nc3ccc(C)cc3F)ccc12 [Example 224, N-(2-fluoro-4-methylphenyl)-1-((2-fluorophenyl)sulfonyl)-3-((methylamino)methyl)-1H-indol-6-amine hydrochloride] | 3300 nM
11 | CNCc1cn(S(=O)(=O)c2cccc(C(F)(F)F)c2)c2cc(Nc3ccc(OC(F)(F)F)cc3C)ccc12 [Example 189, N-(2-methyl-4-(trifluoromethoxy)phenyl)-3-((methylamino)methyl)-1-((3-(trifluoromethyl)phenyl)sulfonyl)-1H-indol-6-amine hydrochloride] | 650 nM
12 | CNCc1cn(S(=O)(=O)c2cccnc2)c2cc(Nc3ccc(Oc4ccccc4)cc3)ccc12 [Example 17, 3-((methylamino)methyl)-N-(4-phenoxyphenyl)-1-(pyridin-3-ylsulfonyl)-1H-indol-6-amine hydrochloride] | 2250 nM
13 | CNCc1cn(S(=O)(=O)c2cccnc2)c2cc(Nc3c(C)cc(C)cc3C)ccc12 [Example 80, N-mesityl-3-((methylamino)methyl)-1-(pyridin-3-ylsulfonyl)-1H-indol-6-amine hydrochloride] | 170 nM
14 | CNCc1cn(S(=O)(=O)c2cccnc2)c2cc(-c3ccnn3C)ccc12 [Example 250, N-methyl-1-(6-(1-methyl-1H-pyrazol-5-yl)-1-(pyridin-3-ylsulfonyl)-1H-indol-3-yl)methanamine] | 40000 nM
15 | CNCc1cn(S(=O)(=O)c2cncc(F)c2)c2cc(Nc3ccc(C)cc3Cl)cnc12 [Example 350, N-(2-chloro-4-methylphenyl)-1-((5-fluoropyridin-3-yl)sulfonyl)-3-((methylamino)methyl)-1H-pyrrolo[3,2-b]pyridin-6-amine hydrochloride] | 260 nM
16 | CNCc1cn(S(=O)(=O)c2cccnc2)c2cc(Nc3ccc(Br)cc3C(F)(F)F)ccc12 [Example 45, N-(4-bromo-2-(trifluoromethyl)phenyl)-3-((methylamino)methyl)-1-(pyridin-3-ylsulfonyl)-1H-indol-6-amine hydrochloride] | 1200 nM
17 | CNCc1cn(S(=O)(=O)c2ccc(OC(F)F)cc2)c2cc(-c3cncnc3)ccc12 [Example 265, 1-(1-((4-(difluoromethoxy)phenyl)sulfonyl)-6-(pyrimidin-5-yl)-1H-indol-3-yl)-N-methylmethanamine hydrochloride] | 40000 nM

Further lines, results first:

Row | IC50 | SMILES
18 | 590 nM | CNCc1cn(S(=O)(=O)c2cccc(C(F)(F)F)c2)c2cc(Nc3ccc(C)cc3F)ccc12 [Example 183, N-(2-fluoro-4-methylphenyl)-3-((methylamino)methyl)-1-((3-(trifluoromethyl)phenyl)sulfonyl)-1H-indol-6-amine hydrochloride]
19 | 1920 nM | CNCc1cn(S(=O)(=O)c2cccc(F)c2)c2cc(Nc3ccc(OC(F)(F)F)cc3OC)cnc12 [Example 343, 1-((3-fluorophenyl)sulfonyl)-N-(2-methoxy-4-(trifluoromethoxy)phenyl)-3-((methylamino)methyl)-1H-pyrrolo[3,2-b]pyridin-6-amine hydrochloride]
20 | 630 nM | CNCc1cn(S(=O)(=O)c2cccc(OC)c2)c2cc(Nc3ccc(C)nc3F)ccc12 [Example 171, N-(2-fluoro-6-methylpyridin-3-yl)-1-((3-methoxyphenyl)sulfonyl)-3-((methylamino)methyl)-1H-indol-6-amine hydrochloride]
21 | 290 nM | CNCc1cn(S(=O)(=O)c2cccnc2)c2cc(Nc3c(C)cccc3Cl)ccc12 [Example 61, N-(2-chloro-6-methylphenyl)-3-((methylamino)methyl)-1-(pyridin-3-ylsulfonyl)-1H-indol-6-amine hydrochloride]
22 | 640 nM | CNCc1cn(S(=O)(=O)c2cccc(F)c2)c2cc(Cc3ccc(OC)nc3Cl)ccc12 [Example 292, 1-(6-((2-chloro-6-methoxypyridin-3-yl)methyl)-1-((3-fluorophenyl)sulfonyl)-1H-indol-3-yl)-N-methylmethanamine hydrochloride]
23 | 370 nM | CNCc1cn(S(=O)(=O)c2cccc(OC(F)F)c2)c2cc(Nc3ccc(Cl)cc3F)ccc12 [Example 176, N-(4-chloro-2-fluorophenyl)-1-((3-(difluoromethoxy)phenyl)sulfonyl)-3-((methylamino)methyl)-1H-indol-6-amine hydrochloride]
24 | 350 nM | CNCc1cn(S(=O)(=O)c2cccc(Cl)c2)c2cc(Nc3ccc(C(F)(F)F)cc3Cl)ccc12 [Example 152, N-(2-chloro-4-(trifluoromethyl)phenyl)-1-((3-chlorophenyl)sulfonyl)-3-((methylamino)methyl)-1H-indol-6-amine hydrochloride]
25 | 420 nM | CNCc1cn(S(=O)(=O)c2cccnc2)c2cc(Nc3ccc(OC)cc3)ccc12 [Example 12, N-(4-methoxyphenyl)-3-((methylamino)methyl)-1-(pyridin-3-ylsulfonyl)-1H-indol-6-amine hydrochloride]
26 | 920 nM | CNCc1cn(S(=O)(=O)c2cccc(OC)c2)c2cc(Cc3ccc(OC)nc3Cl)ccc12 [Example 295, 1-(6-((2-chloro-6-methoxypyridin-3-yl)methyl)-1-((3-methoxyphenyl)sulfonyl)-1H-indol-3-yl)-N-methylmethanamine]
27 | 150 nM | CNCc1cn(S(=O)(=O)c2cccc(Cl)c2)c2cc(Nc3ccc(C)cc3F)ccc12 [Example 146, 1-((3-chlorophenyl)sulfonyl)-N-(2-fluoro-4-methylphenyl)-3-((methylamino)methyl)-1H-indol-6-amine hydrochloride]
28 | 610 nM | CNCc1cn(S(=O)(=O)c2cccc(OC)c2)c2cc(Nc3ccc(OC)cc3F)ccc12 [Example 167, N-(2-fluoro-4-methoxyphenyl)-1-((3-methoxyphenyl)sulfonyl)-3-((methylamino)methyl)-1H-indol-6-amine hydrochloride]
29 | 370 nM | CNCc1cn(S(=O)(=O)c2cccnc2)c2cc(Nc3c(C)cc(Cl)cc3C)ccc12 [Example 85, N-(4-chloro-2,6-dimethylphenyl)-3-((methylamino)methyl)-1-(pyridin-3-ylsulfonyl)-1H-indol-6-amine hydrochloride]
30 | 610 nM | CNCc1cn(S(=O)(=O)c2cccc(OC(F)F)c2)c2cc(Nc3ccc(OC)cc3F)ccc12 [Example 178, 1-((3-(difluoromethoxy)phenyl)sulfonyl)-N-(2-fluoro-4-methoxyphenyl)-3-((methylamino)methyl)-1H-indol-6-amine hydrochloride]
31 | 1290 nM | CNCc1cn(S(=O)(=O)c2ccccc2C)c2cc(Nc3ccc(C)cc3F)ccc12 [Example 223, N-(2-fluoro-4-methylphenyl)-3-((methylamino)methyl)-1-(o-tolylsulfonyl)-1H-indol-6-amine hydrochloride]
32 | 1140 nM | CNCc1cn(S(=O)(=O)c2cccnc2)c2cc(Nc3ccc(Cl)cc3C#N)ccc12 [Example 30, 5-chloro-2-((3-((methylamino)methyl)-1-(pyridin-3-ylsulfonyl)-1H-indol-6-yl)amino)benzonitrile hydrochloride]
33 | 270 nM | CNCc1cn(S(=O)(=O)c2cccnc2)c2cc(Nc3ccc(F)c(C)c3C)ccc12 [Example 66, N-(4-fluoro-2,3-dimethylphenyl)-3-((methylamino)methyl)-1-(pyridin-3-ylsulfonyl)-1H-indol-6-amine hydrochloride]
